# Experimental data taken from publication PMC9250534, “Synthesis and direct assay of large macrocycle diversities by combinatorial late-stage modification at picomole scale” (Nature Communications, 2022).
# Target: MDM2 (Homo sapiens, UniProt Q00987)
# Experiment: MDM2 binding screen of Libraries 3 and 4: displacement of fluorescent probe F-M8 at 750 nM macrocycle
# Conditions: Panel b, Library 3: 63 scaffolds combinatorially acylated with 15 carboxylic acids at 30 picomole scale; displacement of fluorescent peptide probe; macrocycle 750 nM
# Procedure, shortened: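 Competition with nutlin-3a was run using the fluorescein conjugate. Library members came from scaffolds reacted 6 h at room temperature with carboxylic acids (20 equiv.), HBTU and DABCO in DMSO. Quenching was overnight in Tris-Cl pH 7.4 buffer with 0.01% Tween20.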
# MDM2, sequence (Q00987 whole entry): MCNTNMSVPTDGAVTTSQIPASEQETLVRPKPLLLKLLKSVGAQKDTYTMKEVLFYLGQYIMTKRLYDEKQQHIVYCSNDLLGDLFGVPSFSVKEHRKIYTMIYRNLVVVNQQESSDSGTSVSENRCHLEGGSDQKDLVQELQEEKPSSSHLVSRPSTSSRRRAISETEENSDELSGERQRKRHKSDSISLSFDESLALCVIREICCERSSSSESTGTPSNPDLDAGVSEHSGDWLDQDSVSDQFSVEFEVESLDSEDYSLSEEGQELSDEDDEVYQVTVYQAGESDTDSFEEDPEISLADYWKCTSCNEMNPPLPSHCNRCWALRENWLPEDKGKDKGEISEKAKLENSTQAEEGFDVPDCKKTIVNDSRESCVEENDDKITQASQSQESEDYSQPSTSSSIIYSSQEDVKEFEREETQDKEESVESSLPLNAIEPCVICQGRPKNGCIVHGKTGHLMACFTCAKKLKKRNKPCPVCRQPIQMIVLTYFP
row,fraction of fluorescent probe displaced,SMILES
1,-0.00533,CN1C(=O)[C@H](CNC(=O)c2ccc(Cl)cc2)NC(=O)[C@@H]2CN(CCO2)C(=O)CCSSCCNC(=O)[C@@H]1Cc1c[nH]c2ccccc12 [X-Cop-Dap-NMe-Trp + Acid 25]
2,-0.025,O=C1CN(CCNC(=O)c2ccc(Cl)s2)C(=O)[C@@H]2CN(CCO2)C(=O)CCSSCCNC(=O)[C@H](Cc2cccc3ccccc23)N1 [X-Cop-N-Aeg-1-NaI + Acid 14]
3,0.008,O=C1CN(CCNC(=O)c2ccc(Cl)cc2)C(=O)C2CN(CCO2)C(=O)CCSSCCNC(=O)C(Cc2cccc3ccccc23)N1 (centres unmarked) [X-Cop-N-Aeg-1-NaI + Acid 25]
4,0.048,O=C(C=Cc1ccc(Cl)cc1)NCCN1CC(=O)NC(Cc2cccc3ccccc23)C(=O)NCCSSCCC(=O)N2CCOC(C2)C1=O (centres unmarked) [X-Cop-N-Aeg-1-NaI + Acid 108]
5,0.035,O=C(/C=C/c1ccc(OCc2ccccc2)cc1)NCCN1CC(=O)N[C@@H](Cc2cccc3ccccc23)C(=O)NCCSSCCC(=O)N2CCO[C@@H](C2)C1=O [X-Cop-N-Aeg-1-NaI + Acid 110]
6,-0.00533,O=C1CN(CCNC(=O)c2cccc(Oc3ccccc3)c2)C(=O)[C@@H]2CN(CCO2)C(=O)CCSSCCNC(=O)[C@H](Cc2cccc3ccccc23)N1 [X-Cop-N-Aeg-1-NaI + Acid 111]
7,0.008,CC(Oc1cccc(Cl)c1)C(=O)NCCN1CC(=O)N[C@@H](Cc2cccc3ccccc23)C(=O)NCCSSCCC(=O)N2CCO[C@@H](C2)C1=O (some centres unmarked) [X-Cop-N-Aeg-1-NaI + Acid 113]
8,0.015,O=C(CCS(=O)(=O)c1ccccc1)NCCN1CC(=O)NC(Cc2cccc3ccccc23)C(=O)NCCSSCCC(=O)N2CCOC(C2)C1=O (centres unmarked) [X-Cop-N-Aeg-1-NaI + Acid 114]
9,-0.019,O=C1CN(CCNC(=O)c2ccc(Cl)s2)C(=O)C2CN(CCO2)C(=O)CCSSCCNC(=O)C(Cc2ccc3ccccc3c2)N1 (centres unmarked) [X-Cop-N-Aeg-2-Nal + Acid 14]
10,0.00133,O=C1CN(CCNC(=O)c2ccc(Cl)cc2)C(=O)[C@@H]2CN(CCO2)C(=O)CCSSCCNC(=O)[C@H](Cc2ccc3ccccc3c2)N1 [X-Cop-N-Aeg-2-Nal + Acid 25]
11,-0.015,O=C1CN(CCNC(=O)C2CC2c2ccccc2)C(=O)C2CN(CCO2)C(=O)CCSSCCNC(=O)C(Cc2ccc3ccccc3c2)N1 (centres unmarked) [X-Cop-N-Aeg-2-Nal + Acid 105]
12,0.035,O=C(/C=C/c1ccc2ccccc2c1)NCCN1CC(=O)N[C@@H](Cc2ccc3ccccc3c2)C(=O)NCCSSCCC(=O)N2CCO[C@@H](C2)C1=O [X-Cop-N-Aeg-2-Nal + Acid 112]
13,-0.00533,O=C1CN(CCNC(=O)c2ccc(Cl)s2)C(=O)[C@@H]2CN(CCO2)C(=O)CCSSCCNC(=O)[C@H](Cc2c[nH]c3cc(Cl)ccc23)N1 [X-Cop-N-Aeg-Cl-Trp + Acid 14]
14,0.00455,O=C1CN(CCNC(=O)c2ccc3ccccc3c2)C(=O)[C@@H]2CN(CCO2)C(=O)CCSSCCNC(=O)[C@H](Cc2c[nH]c3cc(Cl)ccc23)N1 [X-Cop-N-Aeg-Cl-Trp + Acid 107]
15,0.021,O=C1CN(CCNC(=O)C2COc3ccccc3O2)C(=O)[C@@H]2CN(CCO2)C(=O)CCSSCCNC(=O)[C@H](Cc2c[nH]c3cc(Cl)ccc23)N1 (some centres unmarked) [X-Cop-N-Aeg-Cl-Trp + Acid 115]
16,-0.012,O=C1CN(CCNC(=O)c2ccc(Cl)s2)C(=O)[C@@H]2CN(CCO2)C(=O)CCSSCCNC(=O)[C@@H](Cc2c[nH]c3ccccc23)N1 [X-Cop-N-Aeg-D-Trp + Acid 14]
17,0.015,O=C(/C=C/c1ccc(Cl)cc1)NCCN1CC(=O)N[C@H](Cc2c[nH]c3ccccc23)C(=O)NCCSSCCC(=O)N2CCO[C@@H](C2)C1=O [X-Cop-N-Aeg-D-Trp + Acid 108]
18,0.028,Cn1cc(C[C@@H]2NC(=O)CN(CCNC(=O)c3ccc(Cl)cc3)C(=O)[C@@H]3CN(CCO3)C(=O)CCSSCCNC2=O)c2ccccc21 [X-Cop-N-Aeg-Me-Trp + Acid 25]
19,0.00455,Cn1cc(C[C@@H]2NC(=O)CN(CCNC(=O)c3ccc4ccccc4c3)C(=O)[C@@H]3CN(CCO3)C(=O)CCSSCCNC2=O)c2ccccc21 [X-Cop-N-Aeg-Me-Trp + Acid 107]
20,0.021,Cn1cc(C[C@@H]2NC(=O)CN(CCNC(=O)/C=C/c3ccc(Cl)cc3)C(=O)[C@@H]3CN(CCO3)C(=O)CCSSCCNC2=O)c2ccccc21 [X-Cop-N-Aeg-Me-Trp + Acid 108]
21,-0.00533,Cn1cc(C[C@@H]2NC(=O)CN(CCNC(=O)c3cccc(Oc4ccccc4)c3)C(=O)[C@@H]3CN(CCO3)C(=O)CCSSCCNC2=O)c2ccccc21 [X-Cop-N-Aeg-Me-Trp + Acid 111]
22,0.028,Cn1cc(C[C@@H]2NC(=O)CN(CCNC(=O)/C=C/c3ccc4ccccc4c3)C(=O)[C@@H]3CN(CCO3)C(=O)CCSSCCNC2=O)c2ccccc21 [X-Cop-N-Aeg-Me-Trp + Acid 112]
23,0.021,CN1C(=O)CN(CCNC(=O)c2ccc(Cl)cc2)C(=O)C2CN(CCO2)C(=O)CCSSCCNC(=O)C1Cc1c[nH]c2ccccc12 (centres unmarked) [X-Cop-N-Aeg-NMe-Trp + Acid 25]
24,0.055,O=C1CN(CCNC(=O)c2ccc(Cl)cc2)C(=O)C2CN(CCO2)C(=O)CCSSCCNC(=O)C(Cc2c[nH]c3ccccc23)N1 (centres unmarked) [X-Cop-N-Aeg-Trp + Acid 25]
25,0.00455,O=C1CN(CCNC(=O)c2ccc3ccccc3c2)C(=O)[C@@H]2CN(CCO2)C(=O)CCSSCCNC(=O)[C@H](Cc2c[nH]c3ccccc23)N1 [X-Cop-N-Aeg-Trp + Acid 107]
26,0.028,O=C(/C=C/c1ccc2ccccc2c1)NCCN1CC(=O)N[C@@H](Cc2c[nH]c3ccccc23)C(=O)NCCSSCCC(=O)N2CCO[C@@H](C2)C1=O [X-Cop-N-Aeg-Trp + Acid 112]

# Second part, the compound before the results:
row,SMILES,fraction of fluorescent probe displaced
1,CN1C(=O)C(CNC(=O)C2CC2c2ccccc2)NC(=O)C2CN(CCO2)C(=O)CCSSCCNC(=O)C1Cc1c[nH]c2ccccc12 (stereo not drawn) [X-Cop-Dap-NMe-Trp + Acid 105],0.018
2,CN1C(=O)C(CNC(=O)c2ccc3ccccc3c2)NC(=O)C2CN(CCO2)C(=O)CCSSCCNC(=O)C1Cc1c[nH]c2ccccc12 (stereo not drawn) [X-Cop-Dap-NMe-Trp + Acid 107],0.011
3,O=C(NCC1NC(=O)C2CN(CCO2)C(=O)CCSSCCNC(=O)C(Cc2c[nH]c3ccccc23)NC1=O)c1ccc(Cl)cc1 (stereo not drawn) [X-Cop-Dap-Trp + Acid 25],0.041
4,O=C(NC[C@@H]1NC(=O)[C@@H]2CN(CCO2)C(=O)CCSSCCNC(=O)[C@H](Cc2c[nH]c3ccccc23)NC1=O)c1ccc2ccccc2c1 [X-Cop-Dap-Trp + Acid 107],0.108
5,O=C(/C=C/c1ccc(OCc2ccccc2)cc1)NC[C@@H]1NC(=O)[C@@H]2CN(CCO2)C(=O)CCSSCCNC(=O)[C@H](Cc2c[nH]c3ccccc23)NC1=O [X-Cop-Dap-Trp + Acid 110],-0.012
6,O=C(NC[C@@H]1NC(=O)[C@@H]2CN(CCO2)C(=O)CCSSCCNC(=O)[C@H](Cc2c[nH]c3ccccc23)NC1=O)c1cccc(Oc2ccccc2)c1 [X-Cop-Dap-Trp + Acid 111],0.048
7,O=C(/C=C/c1ccc2ccccc2c1)NC[C@@H]1NC(=O)[C@@H]2CN(CCO2)C(=O)CCSSCCNC(=O)[C@H](Cc2c[nH]c3ccccc23)NC1=O [X-Cop-Dap-Trp + Acid 112],0.168
8,CC(Oc1cccc(Cl)c1)C(=O)NC[C@@H]1NC(=O)[C@@H]2CN(CCO2)C(=O)CCSSCCNC(=O)[C@H](Cc2c[nH]c3ccccc23)NC1=O (stereo partly drawn) [X-Cop-Dap-Trp + Acid 113],-0.00533
9,O=C(NC[C@@H]1NC(=O)[C@@H]2CN(CCO2)C(=O)CCSSCCNC(=O)[C@H](Cc2c[nH]c3ccccc23)NC1=O)C1COc2ccccc2O1 (stereo partly drawn) [X-Cop-Dap-Trp + Acid 115],-0.00533
10,O=C1CN(CCNC(=O)C2COc3ccccc3O2)C(=O)[C@@H]2CN(CCO2)C(=O)CCSSCCNC(=O)[C@@H](Cc2c[nH]c3ccccc23)N1 (stereo partly drawn) [X-Cop-N-Aeg-D-Trp + Acid 115],-0.00533
11,Cn1cc(C[C@@H]2NC(=O)CN(CCNC(=O)CCS(=O)(=O)c3ccccc3)C(=O)[C@@H]3CN(CCO3)C(=O)CCSSCCNC2=O)c2ccccc21 [X-Cop-N-Aeg-Me-Trp + Acid 114],-0.012
12,CN1C(=O)CN(CCNC(=O)c2ccc(Cl)s2)C(=O)[C@@H]2CN(CCO2)C(=O)CCSSCCNC(=O)[C@@H]1Cc1c[nH]c2ccccc12 [X-Cop-N-Aeg-NMe-Trp + Acid 14],-0.025
13,CN1C(=O)CN(CCNC(=O)/C=C/c2ccc3ccccc3c2)C(=O)[C@@H]2CN(CCO2)C(=O)CCSSCCNC(=O)[C@@H]1Cc1c[nH]c2ccccc12 [X-Cop-N-Aeg-NMe-Trp + Acid 112],0.015
14,O=C(/C=C/c1ccc(OCc2ccccc2)cc1)NCCN1CC(=O)N[C@@H](Cc2c[nH]c3ccccc23)C(=O)NCCSSCCC(=O)N2CCO[C@@H](C2)C1=O [X-Cop-N-Aeg-Trp + Acid 110],0.015
15,O=C1CN(CCNC(=O)C2COc3ccccc3O2)C(=O)[C@@H]2CN(CCO2)C(=O)CCSSCCNC(=O)[C@H](Cc2c[nH]c3ccccc23)N1 (some centres unmarked) [X-Cop-N-Aeg-Trp + Acid 115],-0.012

# Same assay, conditions: Panel c, Library 4: best nine scaffolds and 15 additional carboxylic acids; displacement of fluorescent probe
row,fraction of fluorescent probe displaced,SMILES
1,0.199,CCOc1ccc(C=CC(=O)NCC2NC(=O)C3CN(CCO3)C(=O)CCSSCCNC(=O)C(Cc3c[nH]c4ccccc34)NC2=O)cc1 (stereo not drawn) [X-Cop-Dap-Trp + Acid 117]
2,0.158,CCCOc1ccc(C=CC(=O)NCC2NC(=O)C3CN(CCO3)C(=O)CCSSCCNC(=O)C(Cc3c[nH]c4ccccc34)NC2=O)cc1 (stereo not drawn) [X-Cop-Dap-Trp + Acid 118]
3,0.118,O=C(C=Cc1cccc(C(F)(F)F)c1)NCC1NC(=O)C2CN(CCO2)C(=O)CCSSCCNC(=O)C(Cc2c[nH]c3ccccc23)NC1=O (stereo not drawn) [X-Cop-Dap-Trp + Acid 122]
